In publication PMC10254852, “Design, Synthesis and Anticancer Evaluation of Nitroimidazole Radiosensitisers” (Molecules, 2023):
Converted amounts (≈) assume the structure as drawn. Read-outs that look alike come from different tables or passages of the source.

Experiments:
HCT116/54C cells [1] = assay: In vitro cytotoxicity, 4 h exposure oxic/anoxic, 5-day regrowth, sulforhodamine B; type: cell-based, human; details: HCT116/54C; for HCR: IC50(oxic)/IC50(anoxic); for IC50: Homo sapiens, 4 h exposure, mean ± SEM, n = 3–4
Text: (§1) This allowed derivation of hypoxia cytotoxicity ratios (HCR) as IC50(oxic)/IC50(anoxic) in an HCT116 subclone HCT116/54C and two HNSCC cell lines, FaDu and UT-SCC-74B (Table 2).
(§2) HCT116/54C is an HCT116 subline that originated from a mixed culture with UT-SCC-54C cells, which was supplied alongside UT-SCC-74B by Prof. Bradly Wouters (University Health Network, Toronto, ON, Canada). HCT116/54C and UT-SCC-74B cells were passaged in minimum essential media (MEM, ThermoFisher Scientific, Waltham, MA, USA) with 10% foetal calf serum (FCS, Moregate Biotech, Hamilton, New Zealand), 4.5 mg/mL D-glucose (Sigma-Aldrich, St. Louis, MO, USA) and 20 mM HEPES (Sigma-Aldrich). FaDu cells were sourced from American Type Culture Collection and cultured in αMEM (ThermoFisher Scientific) with 10% FCS. All cell lines were confirmed mycoplasma-free by PlasmoTest (InvivoGen, San Diego, CA, USA) and were derived from STR-authenticated cryopreserved stocks. Log-phase cells were seeded into 96-well plates at 800 cells/well for HCT116/54C and 1500 cells/well for FaDu. […] After drug washout, cells were grown and stained as for the oxic IC50 assays. The hypoxic cytotoxicity ratio HCR was determined as HCR = IC50(oxic)/IC50(anoxic).

UT-SCC-74B tumours = assay: Tumour radiosensitisation: ex vivo clonogenic assay; type: in vivo, NIH-III mice; details: for Sensitisation Ratio: 2.2 mmol/kg i.v. 5 min prior to 10 Gy radiation, surviving fraction after radiation/surviving fraction after drug + radiation; for enhancement of tumour cell killing by radiotherapy (RAD vs drug + RAD): 2.2 mmol/kg i.v. + 10 Gy, one-way ANOVA
Description: (§3) Specific pathogen-free six- to eight-week-old female NIH-III mice, bred in the Vernon Jansen Unit, University of Auckland, were used for animal experiments. Animals had ad libitum access to food and water and were maintained in microisolator cages on a 12 h light/dark cycle. All treatments were administered by i.v. injection at a dose of 2.2 mmol/kg and injection volume of 10 mL/kg. Compounds 2, 34 and 38 were administered as solutions in saline containing 1% DMSO or for 9–12 as solutions in saline containing 2 molar equivalents of NaHCO3. Control animals received an i.v. injection of saline at 10 mL/kg. All animal experiments were conducted under the auspices of the University of Auckland Animal Ethics Committee (approval 1781).
(§4) Compounds were evaluated for in vivo radiosensitisation of hypoxic cells in HCT116/54C and UT-SCC-74B human tumour xenografts using clonogenic survival as an endpoint, using previously report methods. Tumours were grown subcutaneously on the flanks of NIH-III mice by injecting 5 × 10^6 HCT116/54C cells or UT-SCC-74B cells. Once tumours reached a volume of approximately 250 mm^3, mice were randomly assigned to 4 treatment groups and treated with: (A) vehicle control, (B) 10 Gy RAD only, (C) sensitiser only, or (D) sensitiser given before 10 Gy RAD. Drugs were administered as a single i.v. dose at 2.2 mmol/kg. […] Tumours were excised 18 h after treatment, and tumour cells were dissociated enzymatically and plated to determine the number of surviving (clonogenic) cells per gram of tumour tissue. SF and SR were calculated as described above. Statistical significance of drug effects was tested using one-way ANOVA with Sidak tests for multiple comparisons vs. radiation alone (Table 5).

HCT116/54C tumours = assay: as above; type: in vivo, NIH-III mice; details: for Sensitisation Ratio: 2.2 mmol/kg i.v. 5 min prior to 10 Gy radiation, surviving fraction after radiation/surviving fraction after drug + radiation; for enhancement of tumour killing of radiotherapy (RAD vs drug + RAD): 2.2 mmol/kg i.v. + 10 Gy, one-way ANOVA
Description: as §3, §4

HCT116/54C cells [2] = assay: In vitro radiosensitisation under anoxia, clonogenic survival; type: cell-based, human; details: compound 1 mM, radiation dose for 1% survival/radiation dose for 1% survival with compound, mean ± SEM
Description: Next, we evaluated in vitro radiosensitisation by using a representative subset of nitroimidazole compounds in HCT116/54C cells with a clonogenic survival endpoint. Radiosensitisation was determined by treating cells under anoxia with a range of radiation doses alone and with compounds at equimolar doses (1 mM). Sensitiser enhancement ratios (SER) were calculated as the ratio of radiation dose required for 1% clonogenic survival alone or with compound (Table 3).
Cells were seeded onto 96-well plates at 10^5 cells per well and allowed to attach for 2 h. […] The plates were irradiated (Eldorado 78 ^60Co teletherapy unit, ~2 Gy/min) with 15 Gy under anoxia at room temperature for SR experiments. A metal wedge placed on the top of the metal chamber was used to achieve a graduated radiation dose across the plate, varying from 7 to 29 Gy, calibrated by Fricke dosimetry with ammonium thiocyanate as previously described for SER experiments. The control plate (compound alone, no radiation) was left inside the anaerobic chamber at room temperature during the irradiation period. After treatment, the cells were trypsinized and suspended in usual media + 1% penicillin-streptomycin (ThermoFisher Scientific), and 10-fold serial dilutions were plated for clonogenic survival. After 10 days, plates were stained with methylene blue (2 g/L in EtOH/H2O, 1:1 v/v) and colonies with more than 50 cells were counted. The surviving fraction (SF) was determined as: SF = PE(irradiated)/PE(control) where the plating efficiency (PE) = (No. of colonies)/(No. of cells plated). SF was plotted against radiation dose. Survival ratios (SR) were calculated: SR = (cell survival with radiation)/(cell survival with drug + radiation). Sensitizer enhancement ratios (SER) were calculated: SER = (radiation dose for 1% survival without compound)/(radiation dose for 1% survival with compound).

[3] = parameters: method as in PMID 29253343; details: NIH-III mice, 2.2 mmol/kg i.v., cited from earlier work; for Cmax: read-out: Plasma Cmax
FaDu cells = assay: In vitro cytotoxicity, 4 h exposure oxic/anoxic, 5-day regrowth, sulforhodamine B; type: cell-based; details: for IC50: Homo sapiens, 4 h exposure, mean ± SEM; for HCR: IC50(oxic)/IC50(anoxic)
Text: as §1, §2

[4] = tested on: HCT116/54C tumour xenografts; assay: Tumour growth inhibition in combination with radiation; type: in vivo, NIH-III mice; details: HCT116/54C tumours, fractionated radiation, p < 0.05
Description: as §3
Compounds were evaluated for their ability to inhibit tumour growth in combination with a single dose of radiation (10 Gy) in HCT116/54C or UT-SCC-74B tumour xenografts on the backs of NIH-III mice. In addition, a fractionated radiation schedule (5 Gy on Days 1, 7 and 14) was explored in HCT116/54C tumour xenografts. Mice were randomly assigned to 4 treatment groups and treated with: (A) vehicle control, (B) 10 Gy RAD only, (C) sensitiser only, or (D) sensitiser given 10 min before 10 Gy RAD. Drugs were administered by i.v. injection at 2.2 mmol/kg either as a single dose or three doses on Days 1, 7 and 14 in the fractionated study. Treatment commenced when the average tumour size reached approximately 250 mm^3, and tumour size was measured until study endpoint. Mice were placed in a custom-built lead-shielded jig that allowed irradiation of the whole tumour but shielded the mouse from radiation. Survival analysis represented the time taken for tumours to increase in relative tumour volume by 4× from the start of treatment (RTV^4). The significance of differences in activity between the groups was assessed by log-rank with Holm–Sidak multiple comparison analysis.

UT-SCC-74B cells = assay: In vitro cytotoxicity, 4 h exposure oxic/anoxic, 5-day regrowth, sulforhodamine B; type: cell-based, human; details: for IC50: Homo sapiens, 4 h exposure, mean ± SEM; for HCR: IC50(oxic)/IC50(anoxic)
Text: as §1, §2

[5] = parameters: method as in PMID 29253343; details: comparison values for earlier alcohols; cited from earlier work
[6] = drug alone 2.2 mmol/kg i.v., relative to untreated tumours
[7] = anoxic, n = 3–4, read-out: IC50 Anoxic
[8] = oxic, n = 3–4, read-out: IC50 Oxic

SMILES	HCR (HCT116/54C cells [1])	IC50 (HCT116/54C cells [1]; anoxic, read-out: IC50 Anoxic)	IC50 (HCT116/54C cells [1]; oxic, read-out: IC50 Oxic)	Sensitisation Ratio (UT-SCC-74B tumours)	enhancement of tumour cell killing by radiotherapy (RAD vs drug + RAD) (UT-SCC-74B tumours)	Sensitisation Ratio (HCT116/54C tumours)	enhancement of tumour killing of radiotherapy (RAD vs drug + RAD) (HCT116/54C tumours)	SER at 1 mM (HCT116/54C cells [2])	AUC [3]	T1/2 [3]	Cmax [3]	IC50 (FaDu cells; [7])	IC50 (FaDu cells; [8])	HCR (FaDu cells)	IC50 (UT-SCC-74B cells; [7])	IC50 (UT-SCC-74B cells; [8])	HCR (UT-SCC-74B cells)	aqueous solubility [5]	further results
O=C(Cn1ccnc1[N+](=O)[O-])NCCO [Compound 2, etanidazole, reference compound]	>14.8	1700 ± 200 µM	> 25000 µM	8.94	significantly enhanced tumour cell killing by radiotherapy	3.34	significantly enhanced the tumour killing of radiotherapy	1.18 ± 0.00	1820 µM·h	1.05 h	3640 µM	1500 ± 300 µM	> 20000 µM	>13.3					single agent cell kill (UT-SCC-74B tumours; [6]): 55.9 ± 1.1%; survival (time to RTV^4) vs radiation alone [4]: significantly increased survival compared to radiation alone
O=[N+]([O-])c1nccn1CS(=O)(=O)NCCO [Compound 5]	>21	290 ± 20 µM	> 6200 µM					1.72 ± 0.06				230 ± 10 µM	2300 ± 200 µM	10.0	240 ± 40 µM	4300 ± 800 µM	17.7	18 mM (≈ 4500 µg/mL)	
O=[N+]([O-])c1cncn1CS(=O)(=O)NCCO [Compound 7]	3.3	1400 ± 100 µM	4600 ± 300 µM					1.41 ± 0.02				1400 ± 20 µM	5400 ± 700 µM	4.0	1300 ± 40 µM	4200 ± 900 µM	3.3	23 mM (≈ 5760 µg/mL)	
O=[N+]([O-])c1nccn1CS(=O)(=O)NCCOP(=O)(O)O [Compound 9]				9.64	significantly enhanced tumour cell killing by radiotherapy	6.22	significantly enhanced the tumour killing of radiotherapy		550 µM·h	2.33 h	920 µM								single agent cell kill (HCT116/54C tumours; [6]): 65.7 ± 8.2%
